This note sets out measurements from patent publication US7521459B2, “Method for treating damaged skin” (Metabeauty Inc., priority 2003, dated 2009).

The test system of data set [1] is entire face (precancerous lesions and normal, photodamaged skin). Briefly: Daily application of a pea size aliquot of 5% imiquimod to the entire face of Patient B. The class given is in vivo, human. The settings on record: pea size aliquot of 5% imiquimod every day to the entire face. The protocol:
In a further example of a method of the invention, Patient B is treated with a pea size aliquot of 5% imiquimod every day to the entire face. […] One skilled in the art is familiar with many methods and techniques for evaluating or monitoring changes in the skin. […] For example, changes in pigmentation, texture, and the presence of wrinkles or fine lines can all be monitored through visual assessment. In addition, a mexameter can be used to measure skin pigment, a tewameter and/or evaporometer can be used to measure water content, a laser doppler device can measure blood flow, and a visioscan or optical profilometer can measure surface texture, wrinkles, and/or roughness. Any one or any combination of these methods can be used, in particular, to measure, monitor, or detect changes in fine wrinkles, mottled hyperpigmentation, tactile roughness, lentigines, course or deep wrinkles, telangiectasia, skin laxity, keratinocytic atypia, melanocytic atypia, and/or dermal elastosis.

For another data set, the system named is Patient A skin. The experiment in a line: Daily topical application of a 5% imiquimod composition to Patient A skin, visual inspection. The format is in vivo, human. To be noted: after 8 weeks of daily application. The text has this: In a first example of a method of the invention, a 5% imiquimod composition is applied to Patient A skin.
One skilled in the art is familiar with many methods and techniques for evaluating or monitoring changes in the skin. […] For example, changes in pigmentation, texture, and the presence of wrinkles or fine lines can all be monitored through visual assessment. In addition, a mexameter can be used to measure skin pigment, a tewameter and/or evaporometer can be used to measure water content, a laser doppler device can measure blood flow, and a visioscan or optical profilometer can measure surface texture, wrinkles, and/or roughness. Any one or any combination of these methods can be used, in particular, to measure, monitor, or detect changes in fine wrinkles, mottled hyperpigmentation, tactile roughness, lentigines, course or deep wrinkles, telangiectasia, skin laxity, keratinocytic atypia, melanocytic atypia, and/or dermal elastosis. Thus, the methods and composition of the invention can be used to treat and/or to evaluate possible treatment compositions where any one of these diseases or conditions are present or may be present.

As for `CC(C)Cn1cnc2c(N)nc3ccccc3c21` [imiquimod, 1-isobutyl-1H-imidazo [4,5,-C] quinolin-4-amine], in data set [1], the “appearance of non-precancerous skin (normal, photodamaged skin)” value was “looks smoother, with more regular pigmentation, and improvement of the fine wrinkles”; the “irritation of non-precancerous skin (normal, photodamaged skin)” value is listed as “does not become irritated”. The “reaction of areas of the skin with precancerous lesions on the nose” value in data set [1] (biopsy shows BCC in precancerous regions) was “became very red, eroded and irritated”. For the same compound, in the data set with Patient A skin, the “appearance of clinical wrinkles by visual inspection” value was “decreases”; the general skin appearance entry was “generally improved and healthier appearance”; the most noticeable improvement entry is “pigmentation and texture”.
